15 compounds from PubChem BioAssay (NCI) can be followed below.

Some test systems named below: A549 NSCLC; SK-MEL-5 melanoma; SW-620 colon; MALME-3M melanoma; SF-295 CNS; SNB-19 CNS; NCI/ADR-RES ovarian; SR leukemia; SK-MEL-2 melanoma; MOLT-4 leukemia.
Common to all, as to assay: inhibition of tumour cell growth, NCI panel, 48 h

Values joined by “and” are separate entries in the source; they are usually repeats but may differ in a detail not shown here. Identical values can stand only once.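 These data come from cells grown in 96-well plates and exposed to compound for 48 hours at five concentrations. At the GI50, growth is halved. TGI: total growth inhibition.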

For `Cn1nc2n(c1=O)CCCN2`, the TGI with A549 NSCLC, in the assay on SK-MEL-5 melanoma, with SW-620 colon, in the assay on MALME-3M melanoma, with SF-295 CNS and in the assay on SNB-19 CNS was over 100 µM each time. Further, the TGI with NCI/ADR-RES ovarian and in the assay on SR leukemia was over 100 µM each time.

For the compound `CCOP(=O)(OCC)C(Nc1cccc(F)c1)c1ccccc1` (stereo not drawn), the TGI in the assay with A549 NSCLC, in the assay on SK-MEL-5 melanoma, with SK-MEL-2 melanoma, in the assay with MALME-3M melanoma, with SF-295 CNS and in the assay on SNB-19 CNS was over 100 µM in each case. For the same compound, the TGI with MOLT-4 leukemia, with NCI/ADR-RES ovarian and in the assay with SR leukemia was over 100 µM in each case.

As to `COc1cc2c(cc1OCCCC(=O)Nc1cc(C(=O)Nc3cc(C(=O)Nc4cc(C(=O)NCCCN(C)C)n(C)n4)n(C)n3)n(C)n1)N=CC1CCCN1C2=O` (stereo not drawn), the TGI in the assay with A549 NSCLC is over 100 µM; with SK-MEL-5 melanoma it was 47.4 µM; in the assay with SK-MEL-2 melanoma it was 48 µM; in the assay with SW-620 colon it was over 100 µM; with MALME-3M melanoma, 25.5 µM; in the assay with SF-295 CNS, 86.6 µM. For the same compound, the figures for the TGI with SNB-19 CNS, in the assay with MOLT-4 leukemia and in the assay with NCI/ADR-RES ovarian were 54.4 µM, over 100 µM and 81.7 µM, respectively.

Turning to `[Cl][Pt+2][Cl].[NH-]C1CCCCC1[NH-]` (stereo not drawn), the TGI was over 100 µM in the assay on A549 NSCLC; 33 µM and 19.5 µM and 4.39 µM in the assay with SK-MEL-5 melanoma; > 74.1 µM and > 100 µM and 29.5 µM with SK-MEL-2 melanoma; 44.1 µM and > 56.4 µM and 13.1 µM in the assay with SW-620 colon; 32.4 µM and 24 µM and 7.45 µM in the assay with MALME-3M melanoma; over 100 µM in the assay on SF-295 CNS. In addition, the TGI in the assay with SNB-19 CNS was over 100 µM; in the assay with MOLT-4 leukemia it was > 51.2 µM and > 96.6 µM and 37.9 µM; with NCI/ADR-RES ovarian, > 60.6 µM and > 100 µM and 13.1 µM. Besides, the GI50 in the assay on SK-MEL-2 melanoma was 28.8 µM and 12.8 µM and 3.93 µM; in the assay on MALME-3M melanoma, 10.2 µM and 3.39 µM and 1.14 µM; in the assay on SF-295 CNS, 6.32 µM and 5.35 µM and 1.06 µM.

Turning to `COC(=O)C1CCC(=O)N1C(=O)Cc1ccc(OC)cc1` (stereo not drawn), the TGI in the assay with A549 NSCLC, with SK-MEL-5 melanoma, with SW-620 colon, with SF-295 CNS and in the assay on SNB-19 CNS was over 100 µM each time.

For the compound `COC(=O)[C@H]1[C@@H](C(C)C)O[C@@H](C(C)C)O[C@H]1C(F)(F)F`, the TGI in the assay with A549 NSCLC, in the assay with SK-MEL-5 melanoma, with SW-620 colon, in the assay on MALME-3M melanoma, in the assay with SF-295 CNS and in the assay on SNB-19 CNS was over 100 µM in each case. Besides, the TGI with MOLT-4 leukemia, in the assay with NCI/ADR-RES ovarian and in the assay on SR leukemia was over 100 µM in each case.

For `Cc1ccccc1-n1c(C)nc2c1C(=O)c1ccccc1C2=O`, the TGI with A549 NSCLC is over 100 µM; in the assay on SK-MEL-5 melanoma, 53.7 µM; in the assay with SK-MEL-2 melanoma, over 100 µM; in the assay with SW-620 colon, over 100 µM; in the assay with MALME-3M melanoma, 41.3 µM; in the assay with SF-295 CNS, over 100 µM. The TGI in the assay on SNB-19 CNS, with MOLT-4 leukemia and in the assay with SR leukemia was over 100 µM each time.

For `Cc1ccc(S(=O)(=O)NNC(=O)c2cc(C)ccc2NC(=O)C23CC4CC(CC(C4)C2)C3)cc1`, the TGI in the assay with A549 NSCLC was over 100 µM; in the assay with SK-MEL-5 melanoma, over 100 µM; in the assay with SW-620 colon it was over 100 µM; in the assay on MALME-3M melanoma, 80.4 µM; in the assay with SF-295 CNS, over 100 µM; in the assay with SNB-19 CNS, 57.2 µM. In addition, the TGI with MOLT-4 leukemia, in the assay on NCI/ADR-RES ovarian and in the assay on SR leukemia was over 100 µM throughout.

Consider `N/N=C1/C2CN3CCN(C2)CC1(c1ccc([N+](=O)[O-])cc1)C3`, for which the TGI in the assay with SK-MEL-5 melanoma, in the assay with SK-MEL-2 melanoma, in the assay on SW-620 colon, in the assay with MALME-3M melanoma, in the assay on SF-295 CNS and in the assay with SNB-19 CNS was over 100 µM in each case. In addition, the TGI in the assay on MOLT-4 leukemia, in the assay with NCI/ADR-RES ovarian and in the assay with SR leukemia was over 100 µM each time.

`Nc1cccc2c1C(=O)c1cccc(N)c1C2=O`: the TGI in the assay on A549 NSCLC, with SK-MEL-5 melanoma, in the assay with SK-MEL-2 melanoma, with SW-620 colon, with MALME-3M melanoma and in the assay with SNB-19 CNS was over 100 µM each time. In the assay with MOLT-4 leukemia, this compound returned a TGI of over 100 µM.

On to `CN(C)CCNC(=O)c1ccc(NCCCN(C)CCCNc2ccc3c(=O)n(CCN(C)C)c(=O)n4c5ccccc5c(=O)c2c34)c2c(=O)c3ccccc3[nH]c12`, for which the TGI is 0.164 µM with A549 NSCLC; 1.22 µM with SK-MEL-5 melanoma; 0.228 µM with SK-MEL-2 melanoma; 0.453 µM in the assay with MALME-3M melanoma; 1.06 µM with SF-295 CNS; 0.523 µM in the assay on SNB-19 CNS. The results for the TGI in the assay with MOLT-4 leukemia and in the assay on NCI/ADR-RES ovarian were 1.1 µM and 3.32 µM, respectively.

Turning to `CC(=O)/C(=C/n1c(=S)[nH]c2ccccc21)C(=O)Nc1ccccc1C`, the TGI in the assay on A549 NSCLC, in the assay on SK-MEL-5 melanoma, in the assay on SK-MEL-2 melanoma, with SW-620 colon, in the assay with SF-295 CNS and in the assay on SNB-19 CNS was over 100 µM throughout. The TGI in the assay on MOLT-4 leukemia and with NCI/ADR-RES ovarian was over 100 µM in each case.

As for `C[C@@H](O)C(=O)N1[C@@H]2CC3CC[C@]2(CS1(=O)=O)C3(C)C`, the TGI with A549 NSCLC, in the assay with SK-MEL-5 melanoma, in the assay on SK-MEL-2 melanoma, with SW-620 colon, in the assay on SF-295 CNS and with SNB-19 CNS was over 100 µM throughout. The TGI with MOLT-4 leukemia is over 100 µM; in the assay with NCI/ADR-RES ovarian, over 100 µM; in the assay with SR leukemia, 58.5 µM.

As to `C/C=C\C(CC(=O)NCCc1cn(C(=O)OCc2ccccc2)c2ccccc12)CC(=O)OC` (stereo not drawn), the TGI in the assay on A549 NSCLC, in the assay with SK-MEL-5 melanoma, in the assay with SK-MEL-2 melanoma, in the assay with SW-620 colon, with MALME-3M melanoma and in the assay with SF-295 CNS was over 100 µM throughout. For the same compound, the TGI in the assay on SNB-19 CNS, in the assay on MOLT-4 leukemia and in the assay with NCI/ADR-RES ovarian was over 100 µM throughout.

`Cc1ccc(C2=NOC(=O)[C@@H]3CCCC[C@@H]23)cc1`: the TGI in the assay with SK-MEL-5 melanoma, in the assay with SW-620 colon, with MALME-3M melanoma, in the assay with SF-295 CNS, in the assay with SNB-19 CNS and in the assay on MOLT-4 leukemia was over 100 µM in each case. The TGI with NCI/ADR-RES ovarian and in the assay with SR leukemia was over 100 µM each time.
